The text below walks through data of patent publication US12686855B2, “Generation of pancreatic endoderm from stem cell derived definitive endoderm” (ASPECT BIOSYSTEMS LTD., priority 2019, dated 2026).

The subject of assay [1] is definitive endoderm cells derived from human pluripotent stem cells (hES line SA121). Kind of assay: Differentiation of definitive endoderm to pancreatic endoderm, flow cytometry (FACS) at PE stage. The format is cell-based. How it is done:
(§1) Human embryonic stem (hES) cells line SA121 (Cellectis) are expanded in DEF-CS culture medium (Takara BIO Europe) in fibronectin (Sigma) coated culture flasks (Corning) with 30 ng/ml bFGF (Peprotech) and 10 ng/ml noggin (Peprotech). Cells are single cell passaged with 10 μM Rock inhibitor Y-27632 (Sigma #Y0503) and seeded in shaker flasks or bioreactors (DASBOX, DASGIP, Eppendorf) at a density of 0.5-1 mio/ml and allowed to form clusters under constant stirring conditions.
(§2) After 1-3 days in DEF-CS medium with daily medium change, the clusters are differentiated to DE as described in WO2012/175633 (which is incorporated herein by reference in its entirety). The cell clusters are washed once in RPM11640 (Gibco #61870) and treated with 2-7 μM CHIR99021 (Axon #1386) in RPM11640. After 24 hours the cells were washed with RPM11640 and treated with 25-100 ng/ml Activin A (Peprotech #120-14E) and 2% B27 (Invitrogen #17504-044) in RPM11640 for 3 days with medium change every 24 or 48 hours. Cells are maintained at 37° C. and 5% CO2 in a humidified shaker incubator (Infors) during the differentiation to DE, or in a bioreactor system (DASBOX, DASGIP, Eppendorf).
(§3) Medium was changed daily or every other day. At the end of PE differentiation clusters were analysed by flow cytometry or gene expression analysis (Nanostring). 10 μM AGN193109 (Tocris 5758) was added to the LDN stage of PE differentiation, whereas the remaining part of the protocol was unchanged.

For assay [2] the test system is unchanged. The assay is described as follows: Differentiation of definitive endoderm to pancreatic endoderm, gene expression analysis (Nanostring) on PE10. The format is cell-based. The settings on record: treatment on PE2-3, vs standard protocol. Here is the method:
as §1, §2, §3

In assay [3] the test system is human ES cell or human iPS cell derived PE clusters. Kind of assay: Further differentiation of PE clusters to beta cell like cells, flow cytometry on Cpep/Nkx6.1 and glucagon. The format is cell-based. To be noted: for Cpep/Nkx6.1 double positive: extended in vitro culture. The text has this:
The human ES cell or human iPS cell derived PE clusters are washed and further differentiated to endocrine progenitors (EP) and beta cell like cells (BC), using protocols for endocrine and beta cell induction, as described in WO2015/028614, WO2017/144695 and WO/2019/048690, which are all incorporated herein by reference in their entirety.
At the end of BC differentiation clusters were sampled, dissociated to single cells with TrypLE-Select (Gibco 12563-011), fixed in 10% formalin, stained with Cpep/Nkx6.1 and glucagon and analyzed by flow cytometry.

Assay [4] has as its system differentiated cells at the beta cell stage. Kind of assay: Transplantation of differentiated cells at the beta cell stage, immunohistochemistry and quantitative image analysis. The assay is classed as in vivo. To be noted: 8 weeks after transplantation.
For assay [5], the target named is T1, RARα (Homo sapiens, UniProt P10276).
T1 sequence (P10276 1-462): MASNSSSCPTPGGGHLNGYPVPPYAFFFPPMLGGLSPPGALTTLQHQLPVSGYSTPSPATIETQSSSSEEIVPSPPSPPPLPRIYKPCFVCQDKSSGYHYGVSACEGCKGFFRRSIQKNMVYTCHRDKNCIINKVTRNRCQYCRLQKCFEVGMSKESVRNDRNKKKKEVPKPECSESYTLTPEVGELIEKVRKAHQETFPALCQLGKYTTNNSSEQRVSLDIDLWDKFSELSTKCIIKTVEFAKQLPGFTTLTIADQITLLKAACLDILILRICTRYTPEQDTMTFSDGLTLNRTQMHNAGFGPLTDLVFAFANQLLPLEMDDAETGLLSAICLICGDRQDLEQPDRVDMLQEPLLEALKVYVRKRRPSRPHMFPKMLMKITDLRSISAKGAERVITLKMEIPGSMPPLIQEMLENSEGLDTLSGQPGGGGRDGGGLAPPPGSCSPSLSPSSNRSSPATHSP
The settings on record: cited from earlier work.

The target in assay [6] is T2, RARβ (Homo sapiens, UniProt P10826).
T2 sequence (P10826 1-455): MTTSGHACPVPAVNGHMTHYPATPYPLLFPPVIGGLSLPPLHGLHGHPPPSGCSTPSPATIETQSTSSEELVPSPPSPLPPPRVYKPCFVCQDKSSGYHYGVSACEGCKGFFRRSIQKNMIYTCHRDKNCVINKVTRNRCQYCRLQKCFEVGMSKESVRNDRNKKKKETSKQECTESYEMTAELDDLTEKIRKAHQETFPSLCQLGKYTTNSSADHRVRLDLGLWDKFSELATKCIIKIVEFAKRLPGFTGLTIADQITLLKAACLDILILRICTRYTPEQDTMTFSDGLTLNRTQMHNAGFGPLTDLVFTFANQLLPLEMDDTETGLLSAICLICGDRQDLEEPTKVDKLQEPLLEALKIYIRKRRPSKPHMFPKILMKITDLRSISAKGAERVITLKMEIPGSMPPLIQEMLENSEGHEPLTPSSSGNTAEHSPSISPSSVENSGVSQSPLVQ
The settings on record: cited from earlier work.

Assay [7] has as its target T3, RARγ (Homo sapiens, UniProt P13631).
T3 sequence (P13631 1-454): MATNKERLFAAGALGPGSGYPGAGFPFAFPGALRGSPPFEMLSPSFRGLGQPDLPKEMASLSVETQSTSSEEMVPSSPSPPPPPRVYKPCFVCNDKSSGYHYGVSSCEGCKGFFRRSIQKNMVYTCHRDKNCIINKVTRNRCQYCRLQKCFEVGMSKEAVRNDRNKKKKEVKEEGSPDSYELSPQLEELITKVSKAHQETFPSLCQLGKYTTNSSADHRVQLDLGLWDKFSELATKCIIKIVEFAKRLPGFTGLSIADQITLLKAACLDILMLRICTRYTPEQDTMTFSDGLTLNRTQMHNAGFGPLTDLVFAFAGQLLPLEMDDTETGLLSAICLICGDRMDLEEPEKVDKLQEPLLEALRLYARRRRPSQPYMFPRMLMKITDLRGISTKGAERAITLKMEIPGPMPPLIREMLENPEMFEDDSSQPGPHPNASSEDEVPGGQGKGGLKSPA
To be noted: cited from earlier work.

Assay [8] addresses T1, RARα. The settings on record: RARα transfected CV-1 cells; equal molar AGN 193109 against ATRA; cited from earlier work.
Assay [9] addresses T2, RARβ. To be noted: RARβ transfected CV-1 cells; equal molar AGN 193109 against ATRA; cited from earlier work.
Assay [10] deals with T3, RARγ. The settings on record: RARγ transfected CV-1 cells; equal molar AGN 193109 against ATRA; cited from earlier work.
For assay [11], the system named is definitive endoderm cells derived from human pluripotent stem cells (hES line SA121). Kind of assay: Differentiation of definitive endoderm to pancreatic endoderm, flow cytometry (FACS) at PE stage. The assay is classed as cell-based. To be noted: PE10.
Setting [12] is: treatment on PE2-3, PE10, standard protocol 52%, FIG. 4.

For the compound AM580, the Pdx1/Nkx6.1 double positive in assay [1] (setting [12]) is on record as ~ 14%. Further, in [2], the DLK1 expression result is “marked down regulation”, the NeuroD expression result is “marked increase”, the Ngn3 expression entry is listed as “marked increase” and the Nkx6.1 expression result is “marked down regulation”. The PTF1A expression result in [2] was “marked down regulation”.
Regarding `Cc1ccc(C2=CCC(C)(C)c3ccc(C#Cc4ccc(C(=O)O)cc4)cc32)cc1` [AGN193109], the Pdx1/Nkx6.1 double positive entry in assay [1] (10 μM for last 2 days of LDN stage (PE2-3), PE10, standard condition around 40%, FIGS. 1A,B) is on record as “at least 70%”; in assay [1] (1 L bioreactors (DASgip, Eppendorf), 10 μM on PE2-3, PE10, standard protocol 58.4%, not run in parallel), 82.2%; in [1] (setting [12]), 76.9%. Besides, the “Pdx1/Nkx6.1 double negative cells” value in assay [1] (10 μM on PE2-3, PE10) is given as “less than 10%”. Further, the “effect on PE induction (Pdx1/Nkx6.1 double positive) of extending addition from 2 to 4 days in the LDN stage” value in [1] (10 μM, PE10, FIG. 6A) is recorded as “without any negative effect”. In addition, the “DLK1 expressing pancreatic endoderm (flow cytometry)” value in assay [1] (added on PE2-3, PE11, standard 13%) worked out at 31%. In [1] (rescue of suboptimal PE differentiation, standard 20%, PE10), the “Pdx1/Nkx6.1 double positive cells” value was 75%. Further, the “percentage of Nkx2.2 positive cells at the PE stage” value in assay [1] (treatment on PE2-3, PE10, control 2.9%) is listed as “less than 1%”. For the same compound, the CPA1 expression entry in assay [2] was “increase”. The DLK1 expression entry in assay [2] is reported as “increase”. In [2], the NeuroD expression result was “lower expression”. In [2], the Ngn3 expression result was “lower expression”. Further, the PTF1A expression result in assay [2] is “increase”. The “Cpep/Nkx6.1 double positive beta like cells” value in assay [3] (AGN193109 in LDN stage (PE2-3), BC6-9, standard around 35%) is reported as “around 50%”. For the same compound, the Glucagon positive cells entry in assay [3] (AGN193109 in LDN stage, BC stage, FIG. 7B) is on record as “not accompanied by an increase”. Further, the Cpep/Nkx6.1 double positive in assay [3] (BC day 6, standard protocol 53%) worked out at 59%; in [3] (BC day 13, standard protocol 27%), 57%. The “beta to alpha cell ratio (fraction of insulin positive cells relative to glucagon positive cells)” value in assay [4] is “higher”. The Kd in assay [5], in assay [6] and in assay [7] was 2 nM throughout. For the same compound, the “antagonism of ATRA-induced transcription” value is 85% in [8], 62% in [9] and 100% in assay [10]. In assay [11] (1, 3 and 10 μM on PE2-3, FIG. 5A), the “Pdx1-only positive cells with increasing concentrations” value was “decrease”. Moreover, the “effect of increasing the concentration from 10 μM to 20 μM on PE induction” value in assay [11] (PE2-3, FIG. 5B) is “no additional effect”. For the same compound, the “dose dependence of effect on Pdx1/Nkx6.1 double positive cells” value in assay [11] (range from 0.5 μM to 20 μM on PE2-3) is listed as “dose-responsive”.
